Assay: Waters ACQUITY UPLC BEH C18, 100 × 2.1 mm, 1.7 µm, 40 °C, 0.3 to 0.4 mL/min, estimated dead time 0.63 min; A: water + 0.1% formic acid; B: methanol + 0.1% formic acid; gradient (min/%B) 0/0.5 0.1/0.5 10/80 10.1/99.5 12/99.5
Details: stereoisomer not certain

LC retention time [min] | Compound
4.65 | CCC(C)C(=O)OC1C(O)C2C(CN3CC(C)CCC3C2(C)O)C2CC34OC5(O)C(OC(=O)C(C)(O)C(C)O)CCC3(C)C5CC(O)C4C21O (stereo not given)
4.01 | O=C(CCc1ccc(O)cc1)c1c(O)c(C2OC(CO)C(O)C(O)C2O)c(O)c(C2OC(CO)C(O)C(O)C2O)c1O (stereo not given)
3.71 | COc1cc(C=CC(=O)OC2CC(O)(C(=O)O)CC(O)C2O)ccc1O (stereo not given)
3.47 | O=C1CC(c2ccc(O)c(O)c2)Oc2c1ccc(OC1OC(CO)C(O)C(O)C1O)c2O (stereo not given)
1.93 | Nc1ncnc2c1ncn2C1CC(O)C(CO)O1 (stereo not given)
3.03 | CS(=O)CCCCCCCCC#N (stereo not given)
3.64 | O=c1c(OC2OC(CO)C(O)C(O)C2O)c(-c2cc(O)c(O)c(O)c2)oc2cc(O)cc(O)c12 (stereo not given)
2.8 | COc1cc(-c2oc3cc(OC4OC(CO)C(O)C(O)C4O)cc(O)c3c(=O)c2OC2OC(CO)C(O)C(O)C2O)cc(OC2OC(CO)C(O)C(O)C2O)c1O (stereo not given)
6.34 | O=C(Cc1c[nH]c2ccccc12)NC(Cc1ccccc1)C(=O)O (stereo not given)
3.84 | C=CC1C(OC2OC(CO)C(O)C(O)C2O)OC=C(C(=O)OC)C1CC=O (stereo not given)
2.4 | CCC1C(=O)OCC1Cc1cncn1C (stereo not given)
9.45 | CC(C)=CCc1cc(C2COc3cc(O)c(CC=C(C)C)c(O)c3C2=O)ccc1O (stereo not given)
3.9 | O=c1c(OC2OCC(O)C(O)C2O)c(-c2cc(O)c(O)c(O)c2)oc2cc(O)cc(O)c12 (stereo not given)
4.32 | CC1CCC2(NC1)OC1CC3C4CCC5CC(OC6OC(CO)C(OC7OC(CO)C(O)C(OC8OC(O)C(O)C(O)C8O)C7OCC(O)C(O)C(O)C(O)CO)C(O)C6O)CCC5(C)C4CCC3(C)C1C2C (stereo not given)
3.7 | NCCCCNC(=O)C=Cc1ccccc1
5.4 | COc1cc(C2c3cc4c(cc3C(OC3OC5COC(C)OC5C(O)C3O)C3COC(=O)C23)OCO4)cc(OC)c1O (stereo not given)
2.83 | O=S(=O)(O)ON=C(Cc1ccccc1)SC1OC(CO)C(O)C(O)C1O (stereo not given)
4.05 | OCC1OC(Oc2cc(O)cc(C=Cc3ccc(O)cc3)c2)C(O)C(O)C1O (stereo not given)
5.89 | O=c1cc(-c2ccc(O)cc2)oc2cc(O)cc(O)c12
2.71 | OCC1OC(Oc2cc3c(OC4OC(CO)C(O)C(O)C4O)cc(O)cc3[o+]c2-c2ccc(O)cc2)C(O)C(O)C1O (stereo not given)
8.61 | CC(C)=CCc1cc(C=CC(=O)c2ccc(O)cc2O)ccc1O
2.48 | CC(C)C(=O)OC(CC(=O)[O-])C[N+](C)(C)C (stereo not given)

LC retention time [min] | Compound
5.56 | C=CC1C(OC2OC(CO)C(O)C(O)C2O)OC=C2C(=O)N3CCc4c([nH]c5ccccc45)C3CC21 (stereo not given)
3.36 | COC(=O)C1=COC(OC2OC(CO)C(O)C(O)C2O)C2C1CC(O)C2C (stereo not given)
5.19 | COc1cc2c(cc1OC)-c1c(C)c3ccc(OC)c(OC)c3c[n+]1CC2
2.21 | CS(=O)CCCCC#N (stereo not given)
5.96 | COc1cc(CC2COC(=O)C2Cc2ccc(O)c(OC)c2)ccc1O (stereo not given)
7.84 | CC(C)=CCc1c(O)cc(O)c(CC=C(C)C)c1CCc1ccc(O)c(O)c1
2.55 | CCC(C)C(N)C(=O)NC(C(=O)O)C(C)C (stereo not given)
4.24 | CC1CNC2(OC3CC4C5CCC6CC(OC7OC(CO)C(OC8OC(CO)C(O)C(O)C8OC8OC(CO)C(O)C(O)C8O)C(O)C7O)CCC6(C)C5CCC4(C)C3C2C)C(O)C1 (stereo not given)
8.2 | CC(C)=CCCC(C)(O)C1CCC2(C)C1C(O)CC1C3(C)CCC(OC4OC(CO)C(O)C(O)C4OC4OC(CO)C(O)C(O)C4O)C(C)(C)C3CCC12C (stereo not given)
10.1 | CCCCCCCCC=CCCCCCCCC(=O)OCC(O)COP(=O)([O-])OCC[N+](C)(C)C (stereo not given)
3.23 | CC(C)C(N)C(=O)NC(Cc1ccccc1)C(=O)O (stereo not given)
5.53 | O=C1NCCc2c1[nH]c1ccccc21
4.88 | O=C([O-])CC(=O)OCC1OC(OC2Cc3c(O)cc(O)cc3[O+]=C2c2ccc(O)cc2)C(O)C(O)C1O (stereo not given)
2.57 | CN1CCC23c4ccccc4NC1C21CCN(C)C3Nc2ccccc21
9.52 | CC(C)=CCc1cc(C(O)=CC(=O)c2cc(CC=C(C)C)c(O)cc2O)ccc1O
2.54 | CC(C)CC(NC(=O)CCC(N)C(=O)O)C(=O)O (stereo not given)
4.08 | O=C1CC(c2ccc(OC3OC(CO)C(O)C(O)C3O)cc2)Oc2cc(O)ccc21 (stereo not given)
1.88 | Nc1ncnc2c1ncn2C1OC(CO)C(O)C1O (stereo not given)
4.67 | COc1ccc(-c2coc3cc(OC4OC(COC(=O)CC5CCNCC5)C(O)C(O)C4O)ccc3c2=O)cc1 (stereo not given)
6.18 | CC1(C)CCC2(C(=O)OC3OC(CO)C(O)C(O)C3O)CCC3(C)C(=CCC4C5(C)CCC(OC6OC(C(=O)O)C(O)C(O)C6OC6OC(CO)C(O)C(O)C6O)C(C)(C)C5CCC43C)C2C1 (stereo not given)
3.18 | CC1OC(Oc2cc3c(O)cc(O)cc3[o+]c2-c2ccc(O)c(O)c2)C(O)C(O)C1O (stereo not given)
4.94 | CC1CCC2C(C)C3C(CC4C5CC=C6CC(OC7OC(CO)C(O)C(O)C7OC7OC(C)C(O)C(O)C7O)CCC6(C)C5CCC43C)N2C1 (stereo not given)

LC retention time [min] | Compound
5.86 | CC1OC(OC2C(OC3C(OC4CCC5(C)C(CCC6(C)C5CC=C5C7CC(C)(C)CC(OC8OC(C)C(O)C(O)C8O)C7(C)CCC56C)C4(C)CO)OC(C(=O)O)C(O)C3O)OCC(O)C2O)C(O)C(O)C1O (stereo not given)
3.41 | O=c1cc(-c2ccc(O)cc2)oc2c(C3OC(CO)C(O)C(O)C3O)c(O)c(C3OCC(O)C(O)C3O)c(O)c12 (stereo not given)
8.56 | CCCCC(=O)OC1C(CO)OC(OC2(CO)OC(CO)C(OC(C)=O)C2O)C(OC(=O)CCCC)C1OC(=O)CCCC (stereo not given)
3.35 | O=c1cc(-c2ccc(O)c(O)c2)oc2c(C3OCC(O)C(O)C3O)c(O)c(C3OC(CO)C(O)C(O)C3O)c(O)c12 (stereo not given)
2.75 | CCN(CC)CCOC(=O)c1ccc(N)cc1
4.91 | COc1cc(-c2cc(=O)c3c(O)cc(OC4OC(COC(=O)CC(=O)O)C(O)C(O)C4O)cc3o2)cc(OC)c1O (stereo not given)
5.95 | O=C1CC(c2ccc(O)cc2)Oc2cc(O)cc(O)c21 (stereo not given)
4.55 | COC(=O)C1=C2Nc3ccccc3C23CCN2CCC1C(C(C)OC)C23 (stereo not given)
3.04 | O=C1CC(c2ccc(O)cc2)Oc2c1c(O)cc(O)c2C1OC(CO)C(O)C(O)C1O (stereo not given)
3.87 | O=c1cc2oc(-c3ccc(O)cc3)ccc-2c(O)c1
4.64 | O=c1c(O)c(-c2ccc(O)c(O)c2)oc2c(OC3OC(CO)C(O)C(O)C3O)c(O)cc(O)c12 (stereo not given)
2 | Nc1[nH]c(=O)[nH]c(=O)c1OC1OC(CO)C(OC2OC(CO)C(O)C(O)C2O)C(O)C1O (stereo not given)
6.12 | COc1ccccc1C=CC(=O)O
1.98 | CCC(C)C(NCC1(O)OC(CO)C(O)C1O)C(=O)O (stereo not given)
7.57 | CC1OC(OC2C(OC3C(OC4CCC5(C)C(CCC6(C)C5C=CC5=C7CC(C)(C)CC(O)C7(C)CCC56C)C4(C)CO)OC(C(=O)O)C(O)C3O)OC(C(=O)O)C(O)C2O)C(O)C(O)C1O (stereo not given)
6.36 | CC1(C(=O)O)CCC2(C)CCC3(C)C(=CC(=O)C4C5(C)CCC(OC6OC(C(=O)O)C(O)C(O)C6OC6OC(C(=O)O)C(O)C(O)C6O)C(C)(CO)C5CCC43C)C2C1 (stereo not given)
10 | CCCCCCCCCCCCCCCC(=O)OCC(O)COP(=O)(O)OCCN (stereo not given)
2 | O=S(=O)(O)ON=C(Cc1ccc(O)cc1)SC1OC(CO)C(O)C(O)C1O (stereo not given)
5.29 | COc1ccc(CCNC(=O)C=Cc2ccc(O)c(OC)c2)cc1O
2.72 | CC(C)CC(N)C(=O)N1CCCC1C(=O)O (stereo not given)
4.36 | COc1cc(-c2oc3cc(O)cc(O)c3c(=O)c2OC2OC(CO)C(O)C(O)C2O)cc(OC)c1O (stereo not given)
2.49 | OCC1OC(Oc2cc(O)cc3[o+]c(-c4ccc(O)c(O)c4)c(OC4OC(CO)C(O)C(O)C4OC4OCC(O)C(O)C4O)cc23)C(O)C(O)C1O (stereo not given)

Compound | LC retention time [min]
CC=C1CN(C)C2Cc3c([nH]c4ccccc34)C(c3cc4[nH]c5c(c4cc3OC)CCN3CC4CC(CC)C3C5(C(=O)OC)C4)CC1C2C(=O)OC (stereo not given) | 4.94
O=C1CCCC2C3CCCN4CCCC(CN12)C34 (stereo not given) | 2.26
CC1CCC2C(C)C3C(CC4C5CC=C6CC(OC7OC(CO)C(O)C(OC8OC(CO)C(O)C(O)C8O)C7OC7OC(C)C(O)C(O)C7O)CCC6(C)C5CCC43C)N2C1 (stereo not given) | 4.95
CCC1CN2CCc3cc(OC)c(OC)cc3C2CC1CC1NCCc2cc(OC)c(OC)cc21 (stereo not given) | 3.41
CCCCCCCCC=CCCCCCCCC(=O)OCC(O)COP(=O)([O-])OCC[NH3+] (stereo not given) | 10.2
COCC12CCC(OC)C34C5CC6(O)C(OC)C(O)C(OC(C)=O)(C5C6OC(=O)c5ccccc5)C(C(OC)C13)C4N(C)C2 (stereo not given) | 5.97
CS(=O)C=CCCN=C=S (stereo not given) | 3.77
NC(=O)CN1CC2CC(C1)c1cccc(=O)n1C2 (stereo not given) | 2.18
CC(=O)Oc1ccc(C=Cc2cc(OC(C)=O)cc(OC(C)=O)c2)cc1 | 8.46
COc1cc(C2OCC3C(c4cc(OC)c(OC5OC(CO)C(O)C(O)C5O)c(OC)c4)OCC23)cc(OC)c1OC1OC(CO)C(O)C(O)C1O (stereo not given) | 3.61
CC1C(=O)OC2C(O)C34C5OC(=O)C3(OC3OC(=O)C(O)C34C(C(C)(C)C)C5O)C12O (stereo not given) | 4.33
CCN1CC2(COC)C(O)CC(OC)C34C5CC6(O)C(OC)C(O)C(OC(C)=O)(C5C6OC(=O)c5ccccc5)C(C(OC)C23)C14 (stereo not given) | 5.97
CC(C)C(O)(C(=O)OCC1=CCN2CCC(O)C12)C(C)O (stereo not given) | 2.75
C=CC12CN(C)C3C4COC(CC41)C1(C(=O)N(OC)c4ccccc41)C32 (stereo not given) | 4.05

— the RepoRT retention time repository
